The values that follow come from PubChem BioAssay AID1259407 (Chemical Carcinogenesis Research Information System (CCRIS), 2018).

SMILES strings stand for the structures. Activity calls are given as the source filed them. How the calls were made is not given here.

The subject of this series is CCRIS mutagenicity, Ames/micronucleus/aberration tests. Put plainly: CCRIS mutagenicity studies. To be noted: Test System: AMES SALMONELLA TYPHIMURIUM, Method: PREINCUBATION
[1] abbreviates: Strain/Indicator: TA100, Metabolic Activation: NONE.

As for `COCC1CO1` (stereo not given), the mutagenic call (Strain/Indicator: TA100, Metabolic Activation: HAMSTER, LIVER, S-9, AROCLOR 1254 (10%)) is “active; positive”; the mutagenic call under setting [1] was “active; positive”; the mutagenic call (Strain/Indicator: TA100, Metabolic Activation: RAT, LIVER, S-9, AROCLOR 1254 (10%)) is “active; positive”; the mutagenic call (Strain/Indicator: TA1535, Metabolic Activation: HAMSTER, LIVER, S-9, AROCLOR 1254 (10%)) is “active; positive”; the mutagenic call (Strain/Indicator: TA1535, Metabolic Activation: NONE) is “active; positive”; the mutagenic call (Strain/Indicator: TA1535, Metabolic Activation: RAT, LIVER, S-9, AROCLOR 1254 (10%)) was “active; positive”.
Turning to `CC(N)CCN` (stereo not given), the mutagenic call (Strain/Indicator: TA98, Metabolic Activation: NONE) was “inactive; negative”; the mutagenic call (Strain/Indicator: TA98, Metabolic Activation: RAT, LIVER, S-9, PCB) was “inactive; negative”; the mutagenic call under setting [1] was “inactive; negative”; the mutagenic call (Strain/Indicator: TA100, Metabolic Activation: RAT, LIVER, S-9, PCB) is “inactive; negative”.
